“Also recorded” adds a separate entry of the source.
Legend:
[1] = Full pharmacokinetic evaluation of P11 in EL4 tumor-bearing mice (intact prodrug and released DON); assay type: in vivo, C57BL/6/CES1–/– mice; conditions: P11 2.9 mg/kg SC, analyte intact P11
Description: C57BL/6/CES1^–/– mice were obtained as a gift from the United States Army Medical Research Institute of Chemical Defense, Maryland, USA; breeding was performed in the Johns Hopkins animal facility and was conducted according to protocols reviewed and approved by the Johns Hopkins Institutional Animal Care and Use Committee in compliance with the Association for Assessment and Accreditation of Laboratory Animal Care International (AAALAC) and the Public Health Service Policy on the Humane Care and Use of Laboratory Animals (PHS Policy). Male and female C57BL/6 mice (weighing between 25 and 30 g) 6–8 weeks of age were used for the study. The animals were maintained on a 12 h light–dark cycle with ad libitum access to food (certified laboratory food: Teklad 18% Protein Extruded Rodent Diet) and water. EL4 mouse lymphoma cells were obtained as a gift from the laboratory of Dr. Jonathan Powell (Johns Hopkins University, Baltimore, MD) and maintained in RPMI 1640 medium 1X (Corning, cat. no. 10-040-CV) with 10% (v/v) fetal bovine serum (Corning, cat. no. 35-011-CV), 1% (v/v) antimycotic/antibiotic (Corning, cat. no. 30-004-CI), 2 mM L-glutamine (Corning, cat. no. 25-005-CI), and 10 mM HEPES (Corning, cat. no. 25-060-CI) in a 5% (v/v) CO2 and 95% (v/v) air incubator prior to subcutaneous (SC) injection (1 × 10^6 cells in 0.2 mL of phosphate-buffered saline) on the flank of each mouse.
Pharmacokinetic study was performed after tumors grew to a mean volume of around 400 mm^3. […]
Plasma concentration levels of P11 were measured by precipitating 20 μL of plasma sample with 100 μL of methanol containing internal standard (losartan, 0.5 μM), followed by vortex mixing for 30 s and then centrifugation at 16000g for 5 min at 4 °C. […]
Chromatographic analysis was performed on an Agilent ultra-high-performance LC system coupled with an Agilent 6520 QTOF mass spectrometer (Agilent, Santa Clara, CA). […] P11 concentrations were determined by the AUC of high-resolution extracted chromatograms of P11 divided by internal standard (460.2554 m/z/423.1695 m/z). […]

[2] = tested on: glutamine and FGAR in EL4 tumors; experiment: Tumor target engagement: glutamine and FGAR quantification; assay type: in vivo, C57BL/6/CES1–/– mice; conditions: P11 2.9 mg/kg SC
Description: Glutamine and FGAR were extracted from the tumor by protein precipitation. Per milligram of tissue, 5 μL of methanol containing 10 μmol/L deuterated N-acetyl aspartic acid and deuterated glutamate (internal standards) was added. Tissue samples were homogenized as described above and centrifuged (16000g, 5 min). Standard concentration curves of glutamine and FGAR in untreated plasma and tumor tissues were prepared (separately). For FGAR quantification, supernatants (2 μL) were injected and separated on an UltiMate 3000 UHPLC coupled to a Q Exactive Focus Orbitrap mass spectrometer. Samples were separated on an Agilent Eclipse Plus C18 RRHD (1.8 μm) 2.1 × 100 mm column. The mobile phase consisted of 8 mmol/L dimethylhexylamine (DMHA) + 0.005% formic acid in water, pH 9 (A), and 8 mmol/L DMHA in acetonitrile (B). […] Quantification was performed in full MS negative mode. Data were acquired and quantified with Xcalibur software.
Glutamine analysis took place on an Agilent 1290 UPLC coupled to an Agilent 6520 quadrupole time-of-flight mass spectrometer. Samples (2 μL) were injected and separated on a Waters Acquity UPLC BEH Amide 1.7 μm 2.1 × 100 mm HILIC column with a flow rate of 0.3 mL/min. The mobile phases consisted of A (water +0.1% formic acid) and B (acetonitrile + 0.1% formic acid). The mass spectrometer was run in positive ion mode. Standard curves for FGAR and glutamine were fitted using a blank subtraction method[47] to compensate for the presence of endogenous analyte levels in naïve matrixes.

[3] = Chemical (aqueous) stability in buffer pH 7.4; assay type: physicochemical; conditions: 10 μM; pH 7.4 PBS; 37 °C; 24 h; HRMS/LCMS
Description: The aqueous solubility was determined as previously reported with minor modifications.[48] Briefly, an excess amount of P11 or DRP-104 was added to PBS buffer (pH 7.4) and sonicated for 1 h at 37 °C to ensure saturation. After 1 h, the solution was filtered (0.45 μm PTFE), and the filtrate was diluted appropriately, and the concentration of each analyte was determined via LC–MS. Chemical stabilities of DRP-104 and P11 were done as previously described[18] with modifications. For chemical stability, prodrugs were spiked (10 μM) in buffer at pH 7.4 and incubated at 37 °C for 24 h. Prodrug disappearance was monitored using the developed HRMS methods.

[4] = Metabolic stability in mouse plasma
Description: Briefly, intestinal tissue was homogenized over ice via probe sonication with 1:9 tissue to potassium phosphate buffer (0.1 M) conditions. Prodrugs were spiked in plasma or tissue homogenate at 10 μM final concentration with 0.2% DMSO v/v and incubated in triplicate for 0 and 60 min time points. At each time point, 100 μL of the sample was precipitated with 300 μL of methanol containing internal standard (IS; losartan, 0.5 μM). Precipitated samples were vortexed (30 s) and centrifuged at 10000g for 10 min at 4 °C. After centrifugation, 100 μL of supernatant was aliquoted and submitted for analysis. Prodrug disappearance over time was monitored by liquid chromatography–mass spectrometry (LC–MS) through peak area ratios between the analyte and internal standard.
Chromatographic analysis was performed on a Dionex ultra-high-performance LC system coupled with a Q Exactive Focus Orbitrap mass spectrometer (Thermo Fisher Scientific Inc., Waltham, MA). Separation was achieved using an Agilent Eclipse Plus column (100 × 2.1 mm i.d.; maintained at 35 °C) packed with a 1.8 μm C18 stationary phase. The mobile phase used was composed of 0.1% formic acid in acetonitrile and 0.1% formic acid in water with gradient elution, starting with 2.5% organic phase (from 0 to 0.25 min) and linearly increasing to 99% (from 0.25 to 1.25 min) and re-equilibrating to 2.5% by 4 min. The total run time for each analyte was 5 min. Pumps were operated at a flow rate of 0.4 mL/min. The mass spectrometer controlled by Xcalibur software 4.0.27.13 (Thermo Scientific) was operated with an HESI ion source in positive ionization mode for all compounds. Compounds were identified in the full-scan mode with m/z ranging from 75 to 1125.

CN(C)CC(=O)N[C@@H](Cc1ccccc1)C(=O)N[C@@H](CCC(=O)C=[N+]=[N-])C(=O)OC(C)(C)C [Prodrug P11, tert-Butyl (S)-6-Diazo-2-((S)-2-(2-(dimethylamino)acetamido)-3-phenylpropanamido)-5-oxohexanoate]
intestinal tissue levels of intact prodrug (below the limit of quantification) ([1]; intestinal tissue): < 0.01 nmol/mL | AUC of intact prodrug, tumor ([1]; tumor): 0.092 nmol·h/g | AUC at 6 h ([1]; both sexes, C57BL/6/CES1–/–, mouse, plasma): 0.15 µM·h | fold increase in tumor FGAR compared with vehicle ([2]; 30 min): 150 | fold rise in tumor glutamine compared with vehicle ([2]; 30 min): ~2 | tumor FGAR level ([2]; 30 min post dose (Tmax)): 1040 ± 179 nmol/g | tumor glutamine level ([2]; 30 min post dose (Tmax)): 1710 ± 173 nmol/g | chemical stability in buffer [3]: remained intact without any degradation; also recorded: no degradation | remaining at 1 h, 10 µM ([4]; CES1–/–, mouse, plasma): 93 ± 1% | Plasma ([4]; supplementary CSV, unit not given, matches Table 1 % remaining at 1 h, in %): 93 ± 1

From publication PMC10683027, “Discovery of tert-Butyl Ester Based 6-Diazo-5-oxo-L-norleucine Prodrugs for Enhanced Metabolic Stability and Tumor Delivery” (Journal of Medicinal Chemistry, 2023)
